Experimental data as given in PMC7690883, “Pseudoceratonic Acid and Moloka’iamine Derivatives from the Red Sea Verongiid Sponge Pseudoceratina arabica” (Marine Drugs, 2020).
In brackets after ≈: the same amount, converted by molar mass. Read-outs that look alike come from different tables or passages of the source.

Key:
Type in all cases: cell-based
[1] = system: S. aureus; experiment: MIC determination (dilution method), S. aureus; details: Staphylococcus aureus; Mueller Hinton Broth, 48 h at 37 °C
Procedure: (§1) The minimal inhibitory concentrations (MICs) of the compounds were evaluated using a […] method (Table 3).
(§2) The MIC values of the compounds were determined of using a macrodilution method. Briefly, the compounds were dissolved in MeOH at a final concentration of 2000 µg/mL. Ciprofloxacin and ketoconazole were dissolved in H2O at final concentrations of 100 µg/mL. Syringe filters (0.2 µm) were used for sterilization of all stock solutions. Two-fold serial dilutions of the solutions were used in Mueller Hinton Broth (MHB) to give concentrations of 1.0–1000 µg/mL (for the compounds) and 0.125–64 µg/mL (for ciprofloxacin and ketoconazole). 500 µL from the 10^6 CFU/mL microbial suspensions were added in sterile tubes to give inoculua of 5 × 10^5 CFU/mL. Further, 100 µL of the stock solutions of the compounds and antibiotics were added into the tubes. Control tubes with test microorganisms only and MeOH were prepared. […] The tubes were kept for 48 h at 37 °C.

[2] = system: E. coli (ATCC 25922); experiment: Disc diffusion assay, E. coli; details: Escherichia coli
Procedure: (§3) The antimicrobial evaluation of the compounds against E. coli, S. aureus and C. albicans at 50 µg/disc was carried out using disc diffusion assay. […] The other compounds were weakly active against the three pathogens with inhibition zones of 6–9 mm (Table 3).
(§4) Using S. aureus (ATCC 25923), E. coli (ATCC 25922), and C. albicans (ATCC 14053), a disc diffusion assay was carried out to evaluate the antimicrobial effects of 1–6 at 50 µg/disc as reported before. Ketoconazole (50 µg/disc) and ciprofloxacin (5.0 µg/disc) served as antibiotics controls.

[3] = system: E. coli; experiment: MIC determination (dilution method), E. coli; details: Escherichia coli; Mueller Hinton Broth, 48 h at 37 °C
Procedure: as §1, §2

[4] = system: S. aureus (ATCC 25923); experiment: Disc diffusion assay, S. aureus; details: Staphylococcus aureus
Procedure: as §3, §4

[5] = system: HCT 116 (colorectal carcinoma); experiment: MTT cytotoxicity assay, HCT 116; details: Homo sapiens, read-out: IC50 HCT 116
Procedure: (§5) The cytotoxic and antiproliferative effects of the compounds against MDA-MB-231, HeLa, and HCT 116 cell lines were evaluated using MTT (3-(4,5-Dimethylthiazol-2-yl)-2,5-diphenyltetrazolium bromide) assay (Table 4).
(§6) The cell lines MDA-MB-231 (triple-negative breast cancer, ATCC HTB-26), HeLa (human cervical carcinoma, ATCC CCL-2), HCT 116 (colorectal carcinoma, ATCC CCL-247) were used for the evaluation of the cytotoxicity of the compounds. In addition, NHDF (normal human dermal fibroblasts) cells were used to evaluate the selectivity of compound 2 against the cancerous cell lines. DMEM, with Pen–Strep. (1%) and FBS (10%), was used for culturing MDA-MB-231 cells, while RPMI 1640, with Pen–Strep. (1%) and FBS (10%), was used for culturing HCT 116 and HeLa cells. Finally, NHDF cells were cultured in fibroblast basal medium complemented with Pen–Strep. (1% v/v), heat-inactivated fetal bovine serum (FBS) (2% v/v), insulin (5 µg/mL) and basic fibroblast growth factor (1 ng/mL). Culture of all cells was completed at 37 °C with 5% CO2 and 95% humidity.
(§7) The cytotoxic effects of the compounds were evaluated using MTT assay as reported earlier. Briefly, all cells kept overnight in 5% CO2/air and at 37 °C. Tested compounds were added to the upper row of a 96-well plate followed by 1:4 (v/v) serial dilutions. After 72 h incubation of the compounds with the cells (10,000 cells/well for HCT 116 and NHDF, and 12,000 cells/well for HeLa and MDA-MB-231), the cells’ viability was calculated at 490 nm as reported before. 5-Fluorouracil (5-FU) and DMSO were used as positive and negative controls. The IC50 values reported in […] represent the mean of three separate experiments. A concentration of 10 µM was set as a cutoff value in this assay.

[6] = system: NHDF (normal human dermal fibroblasts); experiment: MTT cytotoxicity assay, NHDF; details: 72 h
Procedure: as §5, §6
The cytotoxic effects of the compounds were evaluated using MTT assay as reported earlier. […] After 72 h incubation of the compounds with the cells (10,000 cells/well for HCT 116 and NHDF, and 12,000 cells/well for HeLa and MDA-MB-231), the cells’ viability was calculated at 490 nm as reported before. […]

[7] = system: C. albicans (ATCC 14053); experiment: Disc diffusion assay, C. albicans; details: Candida albicans
Procedure: as §3, §4

[8] = system: MDA-MB-231 (triple-negative breast cancer); experiment: MTT cytotoxicity assay, MDA-MB-231; details: Homo sapiens, read-out: IC50 MDA-MB-231
Procedure: as §5, §6, §7

[9] = system: HeLa (human cervical carcinoma); experiment: MTT cytotoxicity assay, HeLa; details: 72 h, read-out: IC50 HeLa
Procedure: as §5, §6, §7

[10] = system: C. albicans; experiment: MIC determination (dilution method), C. albicans; details: Candida albicans, read-out: C. albicans MIC
Procedure: as §1, §2

[11] = HCT-116, MTT, 72 h, cutoff 10 µM
[12] = ATCC14053, disc diffusion, 50 µg/disc (compounds and ketoconazole), read-out: C. albicans Inhibition Zone
[13] = MDA-MB-231, MTT, 72 h, cutoff 10 µM
[14] = Homo sapiens, HeLa, MTT, cutoff 10 µM
[15] = Mueller Hinton Broth, 48 h at 37 °C
[16] = ATCC25922, read-out: E. coli Inhibition Zone
[17] = ATCC14053, read-out: C. albicans Inhibition Zone
[18] = ATCC25923, read-out: S. aureus Inhibition Zone

Structure (SMILES)	MIC [1] [µg/mL]	MIC [3] [µg/mL]	IC50 [5, 11] [µM]	IC50 [8, 13] [µM]	IC50 [9, 14] [µM]	IC50 ([5]; HCT-116, 72 h) [µM]	zone of inhibition at 50 µg/disc [2, 16] [mm]	zone of inhibition at 50 µg/disc [7, 17] [mm]	zone of inhibition at 50 µg/disc [4, 18] [mm]	IC50 ([8]; MDA-MB-231, 72 h) [µM]	IC50 ([9]; Homo sapiens, HeLa) [µM]	MIC ([10]; 48 h) [µg/mL]	also measured
O=C(O)c1cn(C2CC2)c2cc(N3CCNCC3)c(F)cc2c1=O [Ciprofloxacin, reference compound]	0.5 (≈ 1.51 µM)	0.25 (≈ 0.754 µM)											zone of inhibition at 5 µg/disc ([2]; ATCC25922, disc diffusion, ciprofloxacin 5.0 µg/disc): 30 mm; zone of inhibition at 5 µg/disc ([4]; ATCC25923, disc diffusion, ciprofloxacin 5.0 µg/disc): 22 mm
N#CC(=O)NCCCOc1c(Br)cc(CCNC=C2C(=O)C=CC2=O)cc1Br [Compound 2, ceratinine N]	125 (≈ 245 µM)	125 (≈ 245 µM)	2.9 ± 0.18	3.1 ± 0.29	2.1								IC50 [6]: 3.5 ± 0.3 µM; zone of inhibition at 50 µg/disc ([2]; ATCC25922, disc diffusion, 50 µg/disc, read-out: E. coli Inhibition Zone): 6 mm; zone of inhibition at 50 µg/disc [7, 12]: 16 mm; zone of inhibition at 50 µg/disc ([4]; ATCC25923, disc diffusion, 50 µg/disc, read-out: S. aureus Inhibition Zone): 7 mm; IC50 ([9]; MTT, cutoff 10 µM): 2.3 ± 0.16 µM; MIC [10, 15]: 16 µg/mL (≈ 31.3 µM)
CCOC(=O)NCCCOc1c(Br)cc(CCN)cc1Br [Compound 3, ceratinine O]	64 (≈ 151 µM)	125 (≈ 295 µM)				9.5 ± 0.85	6	9	8	≥ 10	≥ 10	64 (≈ 151 µM)	
NCCCOc1c(Br)cc(CCN)cc1Br [Compound 4, moloka’iamine]	125 (≈ 355 µM)	125 (≈ 355 µM)				≥ 10	6	6	7	≥ 10	≥ 10	125 (≈ 355 µM)	
NCCCOc1c(Br)cc(C(O)CN)cc1Br (centres unmarked) [Compound 5, hydroxymoloka’iamine]			≥ 10	≥ 10	≥ 10								
O=c1[nH]cc(F)c(=O)[nH]1 [Compound 5-FU, 5-Fluorouracil, reference compound]			4.6 ± 0.23	13 ± 0.3	12.3 ± 0.25								
N#CC(=O)NCCCOc1c(Br)cc(CCN)cc1Br [Compound 6, ceratinamine]	64 (≈ 158 µM)	125 (≈ 309 µM)				≥ 10	7	12	9	≥ 10	≥ 10	32 (≈ 79 µM)	
CC(=O)N1CCN(c2ccc(OCC3COC(Cn4ccnc4)(c4ccc(Cl)cc4Cl)O3)cc2)CC1 (centres unmarked) [Ketoconazole, reference compound]													zone of inhibition at 50 µg/disc [7, 12]: 30 mm; MIC [10, 15]: 0.5 µg/mL (≈ 0.941 µM)
